Results: PubChem BioAssay AID2060499 (Molecular Pharmacology Branch, DTP, NCI, 2025)

Test system: 777334-354-R2-J4-PDC tumor spheroids with HUVEC/MSC, viability
Test: Anticancer human tumor 777334-354-R2-J4-PDC patient-derived pancreatic adenocarcinoma cell line growth inhibition [GQUAD]
Details: for IC50: curve of first compound; for viability, T/C: stronger effect = lower value
Description: DNA G-quadruplex Stabilizer Agents in Combinations in Complex Spheroids
A high-throughput screen of multi-cell type tumor spheroids was designed to identify active combinations of DNA G-quadruplex stabilizer agents and targeted small molecules. Complex spheroids include a stromal component modeled by human endothelial cells (HUVEC) and fibroblasts modeled by human mesenchymal stem cells (MSCs). The concentration ranges selected for each drug and investigational agent were based upon clinically achievable concentrations if the clinical Cmax of the agent was known.
Compounds. The drugs and investigational agents: pidnarulex (CX-5461; NSC782164), APTO-253 (NSC789042), BRACO-19 (NSC847499), peposertib (NSC802822), ceralasertib (NSC780249), elimusertib (NSC800525), camonsertib (NSC841442), AZD-1390 (NSC803789), olaparib (NSC753686), talazoparib (NSC767125), ART-558 (NSC835418), sotorasib (NSC818433), MRTX-1133 (NSC836407), SN-38 (NSC673596), topotecan (NSC609699), etoposide (NSC141540), doxorubicin (NSC123127), gemcitabine (NSC613327), 5-fluorouracil (NSC19893), paclitaxel (NSC125973), vemurafenib (NSC761431), panobinostat (NSC761190), R-306465 (JNJ-16241199; NSC773264), adavosertib (NSC754352), TP-3654 (NSC805149), carboplatin (NSC241240), KSQ-4279 (NSC840948), and staurosporine (NSC755774) were obtained from the National Cancer Institute (NCI) Developmental Therapeutics Program Chemical Repository (34). The FDA-approved anticancer drug set is available from the NCI Developmental Therapeutics Program. […] The stock solutions were prepared in dimethyl sulfoxide (DMSO, Sigma-Aldrich, St. Louis, MO, cat. D2650) at 800-fold the tested concentration and stored at -70 degrees C prior to their use. All drugs and investigational agents were tested over a range starting from a high concentration at or near the clinical Cmax and decreasing in half-log increments. If the clinical Cmax for an agent had not been determined, the highest concentration tested was 10 microM.
2.3 Cell Culture. All cells were maintained in an incubator at 37 degrees C and 5% CO2 with 95% humidity. The PDC lines were cultured according to standard operating procedures established by the NCI PDMR. All PDCs were thawed and cultured in Matrigel-coated flasks prepared with a working solution of 1X Ham's F-12 nutrient mix, without supplementation (Invitrogen, cat. 11765054), 100 U/mL penicillin-streptomycin (Invitrogen, cat. 15140122), and 2.5% Matrigel (Corning Inc., cat. 354248) for the first three passages. The 857933-349-R-J2-PDC line was cultured in 6C/Colon 1B media, which includes advanced DMEM/F-12 (Thermo Fisher Scientific, cat. 12634028), 10 mM HEPES (Thermo Fisher Scientific, cat. 15630080), 1X GlutaMAX supplement (Thermo Fisher Scientific, cat. 35050061), 0.1 mg/mL primocin (InvivoGen, cat. ant-pm-2), 10% defined fetal bovine serum, heat inactivated (HyClone Laboratories Inc., cat. SH30070.03HI), 50% L-WRN conditioned media (ATCC, cat. CRL-3276), 1.25 mM N-Acetyl-L-cysteine (Sigma-Aldrich, cat. A9165), 10 mM nicotinamide (Sigma-Aldrich, cat. N0636), 1X B-27 supplement (Thermo Fisher Scientific, cat. 17504044), 1X N-2 supplement (Thermo Fisher Scientific, cat. 17502048), 10 microM Y-27632 dihydrochloride (Tocris Bioscience, cat. 1254), and 50 ng/mL human EGF recombinant protein (Thermo Fisher Scientific, cat. PHG0311). The 485176-168-R4-J1-PDC line was cultured in Panc media, which includes all 6C/Colon 1B media components plus 100 ng/mL human FGF-10 (Thermo Fisher Scientific, cat. 100-26), 500 nM SB-431542 (Selleckchem, cat. S1067), and gastrin (Tocris, cat. 3006).
[…]
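Further: spheroids exposed to compounds for 7 days before readout.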

O=c1[nH]cc(F)c(=O)[nH]1 + CN(C)c1ccc(Nc2c3ccc(NC(=O)CCN4CCCC4)cc3nc3cc(NC(=O)CCN4CCCC4)ccc23)cc1
IC50 (second compound 0.0316 µM): > 10 µM | IC50 (second compound 0.1 µM): > 10 µM | IC50 (second compound 0.316 µM): > 10 µM | IC50 (second compound 1 µM): > 10 µM | IC50 (second compound 3.16 µM): > 10 µM | IC50 (second compound 10 µM): 8.21 µM | viability, T/C (second compound 0.0316 µM, first compound 0.0316 µM): 91.7% | viability, T/C (second compound 0.0316 µM, first compound 0.1 µM): 92% | viability, T/C (second compound 0.0316 µM, first compound 0.316 µM): 99.9% | viability, T/C (second compound 0.0316 µM, first compound 1 µM): 84.2% | viability, T/C (second compound 0.0316 µM, first compound 3.16 µM): 66.7% | viability, T/C (second compound 0.0316 µM, first compound 10 µM): 55.3% | viability, T/C (second compound 0.1 µM, first compound 0.0316 µM): 96.8% | viability, T/C (second compound 0.1 µM, first compound 0.1 µM): 96.8% | viability, T/C (second compound 0.1 µM, first compound 0.316 µM): 92.3% | viability, T/C (second compound 0.1 µM, first compound 1 µM): 90.7% | viability, T/C (second compound 0.1 µM, first compound 3.16 µM): 80.3% | viability, T/C (second compound 0.1 µM, first compound 10 µM): 60% | viability, T/C (second compound 0.316 µM, first compound 0.0316 µM): 92.6% | viability, T/C (second compound 0.316 µM, first compound 0.1 µM): 91% | viability, T/C (second compound 0.316 µM, first compound 0.316 µM): 96.3% | viability, T/C (second compound 0.316 µM, first compound 1 µM): 87.1% | viability, T/C (second compound 0.316 µM, first compound 3.16 µM): 72.4% | viability, T/C (second compound 0.316 µM, first compound 10 µM): 54.7% | viability, T/C (second compound 1 µM, first compound 0.0316 µM): 99.3% | viability, T/C (second compound 1 µM, first compound 0.1 µM): 88.5% | viability, T/C (second compound 1 µM, first compound 0.316 µM): 82.8% | viability, T/C (second compound 1 µM, first compound 1 µM): 70.6% | viability, T/C (second compound 1 µM, first compound 3.16 µM): 65.9% | viability, T/C (second compound 1 µM, first compound 10 µM): 55% | viability, T/C (second compound 3.16 µM, first compound 0.0316 µM): 93.2% | viability, T/C (second compound 3.16 µM, first compound 0.1 µM): 81.6% | viability, T/C (second compound 3.16 µM, first compound 0.316 µM): 79.2% | viability, T/C (second compound 3.16 µM, first compound 1 µM): 77.8% | viability, T/C (second compound 3.16 µM, first compound 3.16 µM): 71.1% | viability, T/C (second compound 3.16 µM, first compound 10 µM): 54.2% | viability, T/C (second compound 10 µM, first compound 0.0316 µM): 76.6% | viability, T/C (second compound 10 µM, first compound 0.1 µM): 79.1% | viability, T/C (second compound 10 µM, first compound 0.316 µM): 76.8% | viability, T/C (second compound 10 µM, first compound 1 µM): 71.4% | viability, T/C (second compound 10 µM, first compound 3.16 µM): 60.9% | viability, T/C (second compound 10 µM, first compound 10 µM): 47.7%
